Consider 38 molecules from BindingDB's records for patent WO2022021841 (Sichuan University, 2022).

Assay [1] deals with T1, Replicase polyprotein 1ab (Severe acute respiratory syndrome coronavirus 2, UniProt P0DTD1). The assay is described as follows: SARS-CoV-2 in Vero E6.
Assay [2] concerns the target T1, Replicase polyprotein 1ab. The experiment in a line: SARS-CoV-2 Coronavirus 3C Protease FRET Assay. How it is done:
IC50 values were calculated by fitting a curve of Vmax to experimental values with the controls (DMSO) as the top and bottom limits of the curve. […] GraphPad Prism is the analysis tool for all measurements.

With `COc1ccc(OCC(=O)N2C[C@@H]3CCC[C@@H]3C2C(=O)N[C@H](C=O)C[C@@H]2CCNC2=O)cc1` (some centres undefined) [WO2022021841, 17], in assay [1], the EC50 came to 24700 nM. In assay [2], this molecule had a Ki of 20 nM.

In assay [1], `O=C[C@H](C[C@@H]1CCNC1=O)NC(=O)C1[C@H]2CCC[C@H]2CN1C(=O)CCc1cc(F)cc(F)c1` (some centres undefined) [WO2022021841, 19] yielded an EC50 of 5630 nM. Affinity in assay [2] was put at a Ki of 11 nM. The like results for `COc1ccc(OCC(=O)N2C[C@H]3[C@@H](C2C(=O)N[C@H](C=O)C[C@@H]2CCNC2=O)C3(C)C)cc1OC` (some centres undefined) [WO2022021841, 20] were, in that order, 1730 nM and 12 nM. `Cc1cc(Cl)ccc1OCC(=O)N1C[C@@H]2CCC[C@H]2C1C(=O)N[C@H](C=O)C[C@@H]1CCNC1=O` (some centres undefined) [WO2022021841, 24] yielded an EC50 in assay [1] of 1500 nM. Besides, the affinity in assay [2], expressed as Ki, was 22 nM. In assay [1], `O=C[C@H](C[C@@H]1CCNC1=O)NC(=O)C1[C@@H]2CCC[C@H]2CN1C(=O)COc1ccc(Cl)cc1` (some centres undefined) [WO2022021841, 26] returned an EC50 of 670 nM. The molecule further came in with an inhibition constant (Ki) in assay [2] of 9 nM. For the molecule `CC1(C)[C@@H]2C(C(=O)N[C@H](C=O)C[C@@H]3CCNC3=O)N(C(=O)COc3ccc4ccccc4c3)C[C@@H]21` (some centres undefined) [WO2022021841, 27], the EC50 in assay [1] came out at 1270 nM. This molecule also showed a Ki in assay [2] of 54 nM. In assay [1], `COc1ccc(OCC(=O)N2C[C@H]3[C@@H](C2C(=O)N[C@H](C=O)C[C@@H]2CCNC2=O)C3(C)C)cc1F` (some centres undefined) [WO2022021841, 28] came in with an EC50 of 4680 nM. In addition, in assay [2], the affinity corresponds to a Ki of 47 nM. Consider `CC1(C)[C@@H]2C(C(=O)N[C@H](C=O)C[C@@H]3CCNC3=O)N(C(=O)COc3ccc(Cl)c(Br)c3)C[C@@H]21` (some centres undefined) [WO2022021841, 30], for which, in assay [1], a half-maximal response (EC50) required 1150 nM. Besides, in assay [2], affinity was put at a Ki of 14 nM. The matching figures for `CC1(C)[C@@H]2C(C(=O)N[C@H](C=O)C[C@@H]3CCNC3=O)N(C(=O)COc3ccc(Br)cc3Cl)C[C@@H]21` (some centres undefined) [WO2022021841, 31]: 1180 nM and 15 nM. The matching figures for `CC1(C)[C@@H]2C(C(=O)N[C@H](C=O)C[C@@H]3CCNC3=O)N(C(=O)COc3ccc(F)c(F)c3)C[C@@H]21` (some centres undefined) [WO2022021841, 33]: 5570 nM and 13 nM. The like results for `CC1(C)[C@@H]2C(C(=O)N[C@H](C=O)C[C@@H]3CCNC3=O)N(C(=O)COc3cc(F)cc(F)c3)C[C@@H]21` (some centres undefined) [WO2022021841, 34] were, in that order, 1540 nM and 20 nM.

In assay [1], `CC1(C)[C@@H]2C(C(=O)N[C@H](C=O)C[C@@H]3CCNC3=O)N(C(=O)CCc3cccc(F)c3)C[C@@H]21` (some centres undefined) [WO2022021841, 36] came in with an EC50 of 2230 nM. The Ki in assay [2] came to 16 nM. With `O=C[C@H](C[C@@H]1CCNC1=O)NC(=O)C1[C@@H]2CCC[C@H]2CN1C(=O)CCc1cccc(F)c1` (some centres undefined) [WO2022021841, 37], in assay [1], the EC50 was determined as 2970 nM. In assay [2], this molecule gave a Ki of 7 nM. For the molecule `CC1(C)[C@@H]2C(C(=O)N[C@H](C=O)C[C@@H]3CCNC3=O)N(C(=O)COc3ccc(Cl)cc3)C[C@@H]21` (some centres undefined) [WO2022021841, 43], the EC50 in assay [1] was determined as 530 nM. Affinity in assay [2] was put at a Ki of 9 nM.

`CC1(C)[C@@H]2C(C(=O)N[C@H](C=O)C[C@@H]3CCNC3=O)N(C(=O)COc3ccc(Cl)cc3Cl)C[C@@H]21` (some centres undefined) [WO2022021841, 44] yielded an EC50 in assay [1] of 660 nM. Further, in assay [2], the Ki came out at 10 nM. The matching figures for `O=C[C@H](C[C@@H]1CCNC1=O)NC(=O)C1[C@@H]2CCC[C@H]2CN1C(=O)COc1ccc(Cl)c(Cl)c1` (some centres undefined) [WO2022021841, 45]: 830 nM and 19 nM. In assay [2], `O=C[C@H](C[C@@H]1CCNC1=O)NC(=O)C1[C@@H]2CCC[C@H]2CN1C(=S)NCc1cccc(F)c1` (some centres undefined) [WO2022021841, 59] registered a Ki of 37 nM. Same read-out and setting: next, `CC(C)(C)C(NC(=O)Cc1ccc(Cl)cc1Cl)C(=O)N1C[C@@H]2CCC[C@H]2C1C(=O)N[C@H](C=O)C[C@@H]1CCNC1=O` (some centres undefined) [WO2022021841, 60]: 33 nM; `CC(C)(C)C(NCc1ccc(Cl)cc1Cl)C(=O)N1C[C@@H]2CCC[C@H]2C1C(=O)N[C@H](C=O)C[C@@H]1CCNC1=O` (some centres undefined) [WO2022021841, 61]: 39 nM. For the molecule `CC(C)(OCc1ccc(F)cc1F)C(=O)N1C[C@@H]2CCC[C@H]2C1C(=O)N[C@H](C=O)C[C@@H]1CCNC1=O` (some centres undefined) [WO2022021841, 62], the affinity in assay [2], expressed as Ki, was 40 nM. In turn, `CC(C)(CCc1ccc(Cl)c(F)c1)C(=O)N1C[C@@H]2CCC[C@H]2C1C(=O)N[C@H](C=O)C[C@@H]1CCNC1=O` (some centres undefined) [WO2022021841, 63] had a Ki in assay [2] of 26 nM.

Regarding `O=C[C@H](C[C@@H]1CCNC1=O)NC(=O)C1[C@@H]2CCC[C@H]2CN1C(=O)CCc1cc(Cl)cc(Cl)c1` (some centres undefined) [WO2022021841, 64], in assay [2], the affinity, expressed as Ki, was 33 nM.

In turn, `O=C[C@H](C[C@@H]1CCNC1=O)NC(=O)C1[C@@H]2CCC[C@H]2CN1C(=O)CCc1ccc(Cl)cc1` (some centres undefined) [WO2022021841, 65] displayed a Ki in assay [2] of 44 nM. Same read-out and setting: to `O=C[C@H](C[C@@H]1CCNC1=O)NC(=O)C1[C@@H]2CCC[C@H]2CN1C(=O)CCc1cccc(Cl)c1` (some centres undefined) [WO2022021841, 66] belongs 36 nM. On the same count and under the same terms, next, `O=C[C@H](C[C@@H]1CCNC1=O)NC(=O)C1[C@@H]2CCC[C@H]2CN1C(=O)CCc1ccc(Cl)cc1Cl` (some centres undefined) [WO2022021841, 67]: 40 nM; `O=C[C@H](C[C@@H]1CCNC1=O)NC(=O)C1[C@@H]2CCC[C@H]2CN1C(=O)CCc1ccc(Cl)c(Cl)c1` (some centres undefined) [WO2022021841, 68]: 35 nM. In turn, `CC(Oc1ccc(Cl)cc1Cl)C(=O)N1C[C@@H]2CCC[C@H]2C1C(=O)N[C@H](C=O)C[C@@H]1CCNC1=O` (some centres undefined) [WO2022021841, 69] returned a Ki in assay [2] of 107 nM.

For the molecule `O=C[C@H](C[C@@H]1CCNC1=O)NC(=O)C1[C@@H]2CCC[C@H]2CN1C(=O)/C=C/c1ccc(Cl)cc1Cl` (some centres undefined) [WO2022021841, 70], the affinity in assay [2] corresponds to a Ki of 81 nM. On the same count and under the same terms, next, `O=C[C@H](C[C@@H]1CCNC1=O)NC(=O)C1[C@@H]2CCC[C@H]2CN1C(=O)C(F)(F)Oc1ccc(Cl)cc1Cl` (some centres undefined) [WO2022021841, 71]: 40 nM; `O=C[C@H](C[C@@H]1CCNC1=O)NC(=O)C1[C@@H]2CCC[C@H]2CN1C(=O)C(F)Oc1ccc(Cl)cc1Cl` (some centres undefined) [WO2022021841, 72]: 31 nM. The molecule `O=C[C@H](C[C@@H]1CCNC1=O)NC(=O)C1[C@@H]2CCC[C@H]2CN1C(=O)CCc1cccc(O)c1` (some centres undefined) [WO2022021841, 73] yielded a Ki in assay [2] of 31 nM.

As to `O=C[C@H](C[C@@H]1CCNC1=O)NC(=O)C1[C@@H]2CCC[C@H]2CN1C(=O)CCc1ccc(O)cc1` (some centres undefined) [WO2022021841, 74], the Ki in assay [2] turned out to be 51 nM. With `O=C[C@H](C[C@@H]1CCNC1=O)NC(=O)C1[C@@H]2CCC[C@H]2CN1C(=O)CCc1ccc(O)c(O)c1` (some centres undefined) [WO2022021841, 75], the inhibition constant (Ki) in assay [2] amounted to 41 nM. As for `COc1ccc(CCC(=O)N2C[C@@H]3CCC[C@H]3C2C(=O)N[C@H](C=O)C[C@@H]2CCNC2=O)cc1` (some centres undefined) [WO2022021841, 76], the Ki in assay [2] came out at 51 nM. The Ki values of the last two molecules are within 1.5-fold of each other. On the same count and under the same terms, next, `COc1ccc(CCC(=O)N2C[C@@H]3CCC[C@H]3C2C(=O)N[C@H](C=O)C[C@@H]2CCNC2=O)c(Cl)c1` (some centres undefined) [WO2022021841, 77]: 56 nM; `COc1cccc(CCC(=O)N2C[C@@H]3CCC[C@H]3C2C(=O)N[C@H](C=O)C[C@@H]2CCNC2=O)c1` (some centres undefined) [WO2022021841, 78]: 68 nM. Still for that read-out and setting: next, `CC1CNC(=O)[C@@H]1C[C@H](NC(=O)C1[C@H]2[C@H](CN1C(=O)COc1ccc(OC(F)(F)F)cc1)C2(C)C)C(=O)CF` (some centres undefined) [WO2022021841, 79]: 65 nM; `CC1CNC(=O)[C@@H]1C[C@H](NC(=O)C1[C@@H]2CCC[C@H]2CN1C(=O)COc1ccc(OC(F)(F)F)cc1)C(=O)CF` (some centres undefined) [WO2022021841, 80]: 23 nM.
